Data on 1 compound can be found in patent US20140335184A1, “NANOPARTICLE ASSEMBLY, PREPARATION THEREOF, AND ACTIVE MATERIAL DELIVERING COMPOSITE COMPRISING THE SAME” (priority 2012, published 2014).

Structures are written as SMILES.

This data set is described as follows: Measurement of decrease in fluorescence of drug delivering composite. The following applies: measured as a function of time, FIGS. 16A and 16B. The class given is physicochemical. The source says:
FIGS. 16A and 16B are graphs illustrating a measurement of a decrease in a fluorescence of the drug delivering composite prepared in Example 6.
FIG. 16A is a graph illustrating the measurement of a change in fluorescence of a doxorubicin solution according to time, and FIG. 16B is a graph illustrating the measurement of changes in fluorescence of the doxorubicin solution and the drug delivering composite according to an embodiment. […] However, a reduction in fluorescence of doxorubicin alone was not observed when measured as a function of time.

On to `COc1cccc2c1C(=O)c1c(O)c3c(c(O)c1C2=O)C[C@@](O)(C(=O)CO)C[C@@H]3O[C@H]1C[C@H](N)[C@H](O)[C@H](C)O1` [doxorubicin], for which the Change in fluorescence result is listed as “not observed”.
